Activity calls are given as the source filed them. No cut-off for these calls is given here.
Columns and labels:
KYSE-30 [1] = experiment: Down regulation of CDK1 protein expression in human KYSE-30 cells at 80 to 100 nM for 48 hrs by western blot analysis; assay type: functional, cell-based; conditions: dose 80-100 nM
KYSE-450 [2] = experiment: Induction of apoptosis in human KYSE-450 cells assessed as apoptotic cells at 80 nM measured after 48 hrs by annexin-V-FITC and PI staining based flow cytometry analysis (reference value: 8.1667 %); assay type: functional
Tubulin (Homo sapiens) [3] = target: T1, Tubulin (Homo sapiens) (UniProt P68371+Q9H4B7+P0DPH7+P68366+Q13509+Q71U36+P04350+Q3ZCM7+P07437+P68363+Q9BQE3+Q6PEY2+Q13885+Q9BVA1+Q9BUF5); experiment: Inhibition of tubulin polymerization in human KYSE-450 cells assessed as weakening of beta tubulin at 100 to 300 nM for 2 hrs by EBI alkylate competition assay; assay type: cell-based; conditions: dose 100-300 nM
Tubulin (Homo sapiens) [4] = target: T1, Tubulin (Homo sapiens); experiment: Inhibition of tubulin polymerization in human KYSE-450 cells assessed as microtubule assembly at 0.1 uM measured after 48 hrs by immunofluorescence assay; assay type: cell-based
KYSE-450 [5] = experiment: Down regulation of CDK1 protein expression in human KYSE-450 cells at 80 to 100 nM for 48 hrs by western blot analysis; assay type: functional, cell-based; conditions: dose 80-100 nM
KYSE-30 [6] = experiment: Up regulation of p-Histone H3 protein expression in human KYSE-30 cells at 80 to 100 nM for 48 hrs by western blot analysis; assay type: functional, cell-based; conditions: dose 80-100 nM
KYSE-450 [7] = experiment: Up regulation of p-Histone H3 protein expression in human KYSE-450 cells at 80 to 100 nM for 48 hrs by western blot analysis; assay type: functional, cell-based; conditions: dose 80-100 nM
KYSE-450 [8] = experiment: Induction of mitochondrial membrane potential loss in human KYSE-450 cells assessed as decrease in XIAP level at 80 to 100 nM measured after 48 hrs by western blot analysis; assay type: functional, cell-based; conditions: dose 80-100 nM
KYSE-450 [9] = experiment: Induction of mitochondrial membrane potential loss in human KYSE-450 cells assessed as mitochondrial depolarization at 80 to 100 nM measured after 48 hrs by JCI staining based flow cytometry; assay type: functional, cell-based; conditions: dose 80-100 nM
KYSE-450 [10] = experiment: Down regulation of CDC25C protein expression in human KYSE-450 cells at 80 to 100 nM for 48 hrs by western blot analysis; assay type: functional, cell-based; conditions: dose 80-100 nM
KYSE-30 [11] = experiment: Antiproliferative activity against human KYSE-30 cells assessed as cell viability measured up to 48 hrs by CCK8 assay; assay type: functional, cell-based; conditions: time hrs <=48, TDE = time-dependent effect
KYSE-450 [12] = experiment: Antiproliferative activity against human KYSE-450 cells assessed as inhibition of colony formation at 40 to 60 nM for 7 days by crystal violet staining based analysis; assay type: functional, cell-based; conditions: dose 40-60 nM, time 7.0 day

With `COc1ccc(CN(C(=O)CSC(=S)N2CCN(C(=O)OC(C)(C)C)CC2)c2cc(OC)c(OC)c(OC)c2)cc1O` the Activity (KYSE-30 [1]) was “Dose-Dependent Effect”, the Activity (KYSE-450 [2]) was 34.0333% and the inhibition (Tubulin (Homo sapiens) [3]) was “Active”. For the same compound, the inhibition (Tubulin (Homo sapiens) [4]) was “Active”, the Activity (KYSE-450 [5]) was “Dose-Dependent Effect” and the Activity (KYSE-30 [6]) was “Dose-Dependent Effect”. For the same compound, the Activity (KYSE-450 [7]) was “Dose-Dependent Effect”, the Activity (KYSE-450 [8]) was “Dose-Dependent Effect” and the Activity (KYSE-450 [9]) was “Active”. The Activity (KYSE-450 [10]) was “Dose-Dependent Effect”, the inhibition (KYSE-30 [11]) was “Tde” and the inhibition (KYSE-450 [12]) was “Active”.
